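The compound was tested at five concentrations on cells cultured in 96-well plates, with a 48-hour exposure period. GI50: concentration for 50% inhibition of growth. At the TGI there is no net growth.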
Legend:
Experiment in all cases: NCI-60 cell line screen, 48 h
[1] = test system: LOX IMVI melanoma
[2] = test system: NCI-H522 lung
[3] = test system: OVCAR-5 ovarian
[4] = test system: M14 melanoma
[5] = test system: OVCAR-3 ovarian
[6] = test system: SF-268 CNS
[7] = test system: A498 renal
[8] = test system: HOP-92 NSCLC
[9] = test system: U251 CNS
[10] = test system: HL-60(TB) leukemia

SMILES	GI50 [1]	TGI [1]	GI50 [2]	TGI [2]	GI50 [3]	TGI [3]	GI50 [4]	TGI [4]	GI50 [5]	GI50 [6]	GI50 [7]	TGI [7]	GI50 [8]	TGI [8]	GI50 [9]	TGI [9]	GI50 [10]	TGI [5]	TGI [6]	TGI [10]
COc1cc([C@@H]2c3cc4c(cc3[C@H](OC(C)=O)[C@H]3COC(=O)[C@@H]23)OCO4)cc(OC)c1OC	0.551 µM	> 100 µM	0.15 µM	0.448 µM	0.523 µM	> 100 µM	0.242 µM	5.3 µM	0.317 µM	0.358 µM	0.175 µM	0.583 µM	2.55 µM	> 100 µM	0.377 µM	> 100 µM	0.235 µM			
C#CCN(N=O)C(=O)ON1C(=O)CCC1=O		> 100 µM		> 100 µM		> 100 µM		> 100 µM				> 100 µM		> 100 µM		> 100 µM		> 100 µM	> 100 µM	> 100 µM
O=C(c1ccc2ccccc2c1)c1nc2cc(F)ccc2[n+]([O-])c1C(F)(F)F	13.8 µM	26.9 µM	13.6 µM	29.8 µM	23.1 µM	48.9 µM	17.8 µM	34 µM	16.3 µM	18.5 µM	43.7 µM	> 100 µM	19.5 µM	36.5 µM	18.1 µM	33.9 µM	6.68 µM	29.9 µM	38.1 µM	24.9 µM
C1=Cc2nc1c(-c1ccccc1)c1ccc([nH]1)c(-c1ccccc1)c1nc(c(-c3ccccc3)c3ccc([nH]3)c2-c2ccccc2)C=C1		> 100 µM		> 100 µM		> 100 µM		> 100 µM				> 100 µM		> 100 µM		> 100 µM		> 100 µM	> 100 µM	> 100 µM
c1ccc(-c2nc3n(c2-c2ccc4c(c2)OCO4)CCC3)nc1	7.46 µM	> 25 µM	8.14 µM	> 25 µM	5.03 µM	> 25 µM	6.77 µM	> 20.3 µM	7.69 µM	7.86 µM	5.76 µM	20.6 µM	3.48 µM	20.8 µM	6.96 µM	> 25 µM	2.56 µM	> 22.6 µM	> 25 µM	10.7 µM
CN(Cc1ccc(F)cc1)c1ccc(CO)c(Cl)c1	22.9 µM	> 68.9 µM	26.5 µM	97.3 µM	0.426 µM	2.37 µM	23.3 µM	> 76.9 µM	3.55 µM	37.8 µM	0.0507 µM	0.174 µM	3.87 µM	24 µM	4.63 µM	68.5 µM	12.5 µM	15 µM	> 100 µM	54 µM
COC(=O)C(C(=O)C(=O)Nc1ccc(C)cc1C)c1csc(-n2nc(-c3ccccc3)cc2-c2ccccc2)n1 (stereo unspecified)		> 100 µM		> 100 µM		> 100 µM		> 100 µM				> 100 µM		> 100 µM		> 100 µM		> 100 µM	> 100 µM	> 100 µM
C=C1C(=O)C23[C@H](O)C1CC[C@H]2[C@]12COC3(O)[C@@H](O)[C@@H]1C(C)(C)CC[C@@H]2O		33.3 µM		1.9 µM		32.7 µM		18.5 µM				22.7 µM		10.1 µM		18.9 µM		28.2 µM	18.3 µM	47.3 µM
COc1ccccc1-c1cc(=O)c2cc(C)c(C)c(C(=O)O)c2o1		> 100 µM		> 100 µM		> 100 µM		> 100 µM				> 100 µM		> 100 µM		> 100 µM		> 100 µM	> 100 µM	> 100 µM
COc1cc(OCc2cccc(-c3ccccc3)c2C)cc(OC)c1CN1CCCCC1C(=O)NCCOCCOCCN (stereo unspecified)	1.7 µM	3.21 µM	1.88 µM	4.08 µM	3.73 µM	14.9 µM	1.84 µM	3.57 µM	2.11 µM	2.1 µM	2.27 µM	11.8 µM	1.57 µM	5.45 µM	2.1 µM	4.44 µM	1.91 µM	5.03 µM	5.5 µM	4.07 µM
CCN1[C@@H](C(=O)NC23CCC(C(=O)O)(CC2)CC3)[C@H](c2cccc(Cl)c2F)[C@]2(C(=O)Nc3cc(Cl)ccc32)C12CCCCC2	0.259 µM	4.88 µM	2.62 µM	8.24 µM	3.74 µM	17.8 µM	3.22 µM	13.1 µM	2.53 µM	3.1 µM	0.281 µM	3.37 µM	2.15 µM	6.45 µM	3.29 µM	15.5 µM	1.96 µM	7.74 µM	15.1 µM	6 µM
O=C(CC1(O)C(=O)Nc2ccc(F)cc21)c1ccc(C(=O)NCC2CCC3(CC2)OOC2(CCCCC2)OO3)cc1 (stereo unspecified)	0.309 µM	1.27 µM	1.21 µM	2.71 µM	15.7 µM	36.5 µM	12.2 µM	39.3 µM	1.85 µM	10.8 µM	13.3 µM	29.4 µM	1.91 µM	3.82 µM	3.18 µM	11.3 µM	1.43 µM	4.18 µM	30.8 µM	3.46 µM
CCSc1ccc([C@@H]2[C@@H](O)C(=O)N2c2cc(OC)c(OC)c(OC)c2)cc1	< 0.0147 µM	14.5 µM	< 0.01 µM	< 0.0119 µM	0.0526 µM	> 100 µM	< 0.01 µM	15.8 µM	< 0.01 µM	0.0504 µM	< 0.01 µM	0.829 µM		42.1 µM	< 0.0144 µM	16 µM	< 0.0134 µM	0.548 µM	51.7 µM	0.0367 µM
CCCCCCC(O)CC[C@H]1CCC[C@@H](C)N1 (stereo partly specified)		> 100 µM		> 100 µM		< 10 µM		> 100 µM				> 10 µM		> 100 µM		> 31.6 µM		< 10 µM	> 31.6 µM	> 100 µM
N=c1ccc2nc3ccc(N)cc3sc-2c1	2.72 µM	12.5 µM	2.24 µM	7 µM	7.62 µM	24.3 µM	4.34 µM	21.8 µM	3.21 µM	6.42 µM	26.2 µM	> 100 µM	17.7 µM	61 µM	3.45 µM	10.5 µM	1.9 µM	13.7 µM	56.2 µM	20.8 µM
O=c1c2c(-c3ccccc3)c3ccccc3nc2cnn1-c1ccccc1		> 100 µM		> 100 µM		> 100 µM		> 100 µM				> 100 µM		> 100 µM		> 100 µM		> 100 µM	> 100 µM	> 100 µM

Reference: PubChem BioAssay (NCI)
